Laboratory results from patent US8022217B2, “Compounds suitable as modulators of HDL” (Cadila Healthcare Limited, priority 2006, dated 2011).
Counter-ions that a name gives are not always drawn.

Key:
recombinant CETP [1] = molecular target: T1, recombinant CETP (Homo sapiens, UniProt P11597); assay: CETP in-vitro assay (Scintillation Proximity Assay, transfer of [3H] cholesteryl ester from HDL to biotinylated LDL); type: biochemical; details: for inhibition at 10 µM: 10 μmole concentration
T1 sequence (P11597 18-493): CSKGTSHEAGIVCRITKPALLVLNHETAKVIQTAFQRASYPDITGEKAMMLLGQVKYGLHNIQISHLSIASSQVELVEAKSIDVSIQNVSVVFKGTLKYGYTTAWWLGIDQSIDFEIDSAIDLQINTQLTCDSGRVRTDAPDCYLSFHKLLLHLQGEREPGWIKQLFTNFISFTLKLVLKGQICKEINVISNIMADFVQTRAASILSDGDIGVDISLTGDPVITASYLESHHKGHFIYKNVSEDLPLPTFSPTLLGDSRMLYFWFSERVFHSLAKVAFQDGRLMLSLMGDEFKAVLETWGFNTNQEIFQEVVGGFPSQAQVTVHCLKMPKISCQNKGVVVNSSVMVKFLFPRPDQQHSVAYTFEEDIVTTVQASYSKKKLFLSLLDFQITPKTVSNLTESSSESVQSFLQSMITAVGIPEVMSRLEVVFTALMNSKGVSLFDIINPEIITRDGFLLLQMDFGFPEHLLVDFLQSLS
Method: This assay used a commercially available Scintillation Proximity Assay kit (Amersham TRKQ7015) with modifications for measuring CETP activity. [^3H] Cholesteryl ester HDL was mixed with non radioactive HDL prepared from human plasma at an appropriate ratio in order to ensure a proper transfer of cholesteryl esters. Transfer of [^3H] Cholesteryl esters from high density lipoprotein (HDL) to biotinylated low density lipoprotein (LDL) was measured following incubation of donor and acceptor particles in the presence of recombinant CETP. Following overnight incubation, the reaction was terminated and transfer was measured in a single step addition of streptavidin coated beads formulated in an assay terminal buffer. The rate of increase in signal was proportional to the transfer of [^3H] Cholesteryl ester by CETP.

recombinant CETP [2] = molecular target: T1, recombinant CETP; assay: as above; type: biochemical; details: CETP inhibition in human plasma

SMILES	inhibition at 10 µM (recombinant CETP [1]) [%]	IC50 (recombinant CETP [2]) [nM]	% of CETP inhibition at 10 μmole concentration (recombinant CETP [1]) [%]
Cc1ccc(CN(CCc2ccc(Cl)c(Cl)c2)C(=O)c2cccc3c2NCCC3)cc1 [Compound 29, 1,2,3,4-Tetrahydro-quinoline-8-carboxylic acid [2-(3,4-dichloro-phenyl)-ethyl]-(4-methyl-benzyl)-amide]	83	–	–
CC(C)(C)c1ccc(CN(CCc2ccc(F)cc2)C(=O)c2cc(F)cc3c2NCCC3)cc1 [Compound 24, 6-Fluoro-1,2,3,4-tetrahydro-quinoline-8-carboxylic acid (4-tert-butyl-benzyl)-[2-(4-fluoro-phenyl)-ethyl]-amide]	76	–	–
CC(C)(C)c1ccc(CN(CCc2ccc(F)cc2)C(=O)c2ccc(Cl)c3c2NCCC3)cc1 [Compound 7, 5-Chloro-1,2,3,4-tetrahydro-quinoline-8-carboxylic acid (4-tert-butyl-benzyl)-[2-(4-fluoro-phenyl)-ethyl]-amide]	67	–	–
CC(C)(C)c1ccc(CN(CCc2ccc(Cl)c(Cl)c2)C(=O)c2cc(F)cc3c2NCCC3)cc1.Cl [Compound 50, 6-Fluoro-1,2,3,4-tetrahydro-quinoline-8-carboxylic acid (4-tert-butyl-benzyl)-[2-(3,4-dichloro-phenyl)-ethyl]-amide; hydrochloride salt]	–	30	90
CC(C)(C)c1ccc(CN(Cc2cccc(Cl)c2)C(=O)c2cccc3c2NCCC3)cc1 [Compound 21, 1,2,3,4-Tetrahydro-quinoline-8-carboxylic acid (4-tert-butyl-benzyl)-(3-chloro-benzyl)-amide]	77	–	–
CC(C)(C)c1ccc(CN(CCc2ccc(Cl)c(Cl)c2)C(=O)c2cc(F)cc3c2NCCC3)cc1 [Compound 32, 6-Fluoro-1,2,3,4-tetrahydro-quinoline-8-carboxylic acid (4-tert-butyl-benzyl)-[2-(3,4-dichloro-phenyl)-ethyl]-amide]	82	–	–
CC(C)(C)c1ccc(CN(CCc2ccc(Cl)c(F)c2)C(=O)c2cc(Cl)cc3c2NCCC3)cc1 [Compound 45, 6-Chloro-1,2,3,4-tetrahydro-quinoline-8-carboxylic acid (4-tert-butyl-benzyl)-[2-(4-chloro-3-fluoro-phenyl)-ethyl]-amide]	88	–	–
CC(C)(C)c1ccc(CN(CCc2ccc(Cl)c(Cl)c2)C(=O)c2cc(Cl)cc3c2NCCC3)cc1 [Compound 35, 6-Chloro-1,2,3,4-tetrahydro-quinoline-8-carboxylic acid (4-tert-butyl-benzyl)-[2-(3,4-dichloro-phenyl)-ethyl]-amide]	85	–	–
Cc1cc2c(c(C(=O)N(CCc3ccc(F)cc3)Cc3ccc(C(C)(C)C)cc3)c1)NCCC2 [Compound 13, 6-Methyl-1,2,3,4-tetrahydro-quinoline-8-carboxylic acid (4-tert-butyl-benzyl)-[2-(4-fluoro-phenyl)-ethyl]-amide]	80	–	–
CC(C)(C)c1ccc(CN(CCc2ccc(F)c(F)c2)C(=O)c2cc(Cl)cc3c2NCCC3)cc1 [Compound 40, 6-Chloro-1,2,3,4-tetrahydro-quinoline-8-carboxylic acid (4-tert-butyl-benzyl)-[2-(3,4-difluoro-phenyl)-ethyl]-amide]	89	–	–
Cc1cc2c(c(C(=O)N(CCc3ccc(Cl)c(Cl)c3)Cc3ccc(C(C)(C)C)cc3)c1)NCCC2 [Compound 31, 6-Methyl-1,2,3,4-tetrahydro-quinoline-8-carboxylic acid (4-tert-butyl-benzyl)-[2-(3,4-dichloro-phenyl)-ethyl]-amide]	82	–	–

More lines, now with the values ahead:

inhibition at 10 µM (recombinant CETP [1]) [%]	IC50 (recombinant CETP [2]) [nM]	% of CETP inhibition at 10 μmole concentration (recombinant CETP [1]) [%]	SMILES
80	–	–	COc1ccc(CCN(Cc2ccc(C(C)(C)C)cc2)C(=O)c2cccc3c2NCCC3)cc1OC [Compound 43, 1,2,3,4-Tetrahydro-quinoline-8-carboxylic acid (4-tert-butyl-benzyl)-[2-(3,4-dimethoxy-phenyl)-ethyl]-amide]
78	–	–	CC(C)(C)c1ccc(CN(CCc2ccc3c(c2)OCO3)C(=O)c2cccc3c2NCCC3)cc1 [Compound 38, 1,2,3,4-Tetrahydro-quinoline-8-carboxylic acid (2-benzo[1,3]dioxol-5-yl-ethyl)-(4-tert-butyl-benzyl)-amide]
80	–	–	CCN(CC)c1ccc(CCN(Cc2ccc(C(C)(C)C)cc2)C(=O)c2cccc3c2NCCC3)cc1 [Compound 28, 1,2,3,4-Tetrahydro-quinoline-8-carboxylic acid (4-tert-butyl-benzyl)-[2-(4-diethylamino-phenyl)-ethyl]-amide]
43	–	–	CC(C)(C)c1ccc(CN(CCc2ccc(F)cc2)C(=O)c2cccc3c2NCCC3)cc1 [Compound 1, 1,2,3,4-Tetrahydro-quinoline-8-carboxylic acid (4-tert-butyl-benzyl)-(2-(4-fluoro-phenyl)-ethyl)-amide]
99	–	–	CC(C)(C)c1ccc(CN(CCc2ccc(O)cc2)C(=O)c2cccc3c2NCCC3)cc1 [Compound 42, 1,2,3,4-Tetrahydro-quinoline-8-carboxylic acid (4-tert-butyl-benzyl)-[2-(4-hydroxy-phenyl)-ethyl]-amide]
79	–	–	CC(C)(C)c1ccc(CN(CCc2ccc(Cl)c(Cl)c2)C(=O)c2cccc3c2NCCC3)cc1 [Compound 48, 1,2,3,4-Tetrahydro-quinoline-8-carboxylic acid (4-tert-butyl-benzyl)-[2-(3,4-dichloro-phenyl)-ethyl]-amide; hydrochloride salt]
92	–	–	COc1ccc(CCN(Cc2ccc(C(C)(C)C)cc2)C(=O)c2cccc3c2NCCC3)cc1 [Compound 17, 1,2,3,4-Tetrahydro-quinoline-8-carboxylic acid (4-tert-butyl-benzyl)-[2-(4-methoxy-phenyl)-ethyl]-amide]
94	455	–	CC(C)(C)c1ccc(CN(CCc2ccccc2F)C(=O)c2cccc3c2NCCC3)cc1 [Compound 22, 1,2,3,4-Tetrahydro-quinoline-8-carboxylic acid (4-tert-butyl-benzyl)-[2-(2-fluoro-phenyl)-ethyl]-amide]
74	–	–	O=C(c1cccc2c1NCCC2)N(CCc1ccc(F)cc1)Cc1ccc(C(F)(F)F)cc1 [Compound 14, 1,2,3,4-Tetrahydro-quinoline-8-carboxylic acid [2-(4-fluoro-phenyl)-ethyl]-(4-trifluoromethyl-benzyl)-amide]
86	–	–	CC(C)(C)c1ccc(CN(CCc2cccc3ccccc23)C(=O)c2cccc3c2NCCC3)cc1 [Compound 37, 1,2,3,4-Tetrahydro-quinoline-8-carboxylic acid (4-tert-butyl-benzyl)-(2-naphthalen-1-yl-ethyl)-amide]
57	–	–	CC(C)(C)c1ccc(CN(CCc2cccc(Cl)c2)C(=O)c2cccc3c2NCCC3)cc1 [Compound 10, 1,2,3,4-Tetrahydro-quinoline-8-carboxylic acid (4-tert-butyl-benzyl)-[2-(3-chloro-phenyl)-ethyl]-amide]
76	167	–	CC(C)(C)c1ccc(CN(CCc2ccc(O[Si](C)(C)C)cc2)C(=O)c2cccc3c2NCCC3)cc1 [Compound 47, 1,2,3,4-Tetrahydro-quinoline-8-carboxylic acid (4-tert-butyl-benzyl)-[2-(4-trimethylsilanyloxy-phenyl)-ethyl]-amide]
